Results reported in ChEMBL document CHEMBL1201862, “PubChem BioAssay data set” (2004).
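Results reflect a 48-hour exposure of cells in 96-well plates to compound at five concentrations. Here, GI50 denotes the concentration required for 50% inhibition of growth.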 Active and inactive are the calls of the source. Cut-off read from the data, not from the text of the source: active = GI50 up to about 1.1 µM and inactive = higher.

Assays:
Assay in all cases: growth of human tumour cells (NCI), 48 h
A549 = test system: A549
COLO 205 = test system: COLO 205
HCT-116 = test system: HCT-116
HL-60 = test system: HL-60
HOP-62 = test system: HOP-62
HOP-92 = test system: HOP-92
MDA-MB-435 = test system: MDA-MB-435
MDA-N = test system: MDA-N
NCI-H226 = test system: NCI-H226
NCI-H522 = test system: NCI-H522
PC-3 = test system: PC-3
SF-295 = test system: SF-295
SF-539 = test system: SF-539
SK-MEL-28 = test system: SK-MEL-28
SK-MEL-2 = test system: SK-MEL-2
SK-MEL-5 = test system: SK-MEL-5
SN12C = test system: SN12C
SR = test system: SR
SW-620 = test system: SW-620
UACC-257 = test system: UACC-257

Compound | GI50 (A549) | GI50 (COLO 205) | GI50 (HCT-116) | GI50 (HL-60) | GI50 (HOP-62) | GI50 (HOP-92) | GI50 (MDA-MB-435) | GI50 (MDA-N) | GI50 (NCI-H226) | GI50 (NCI-H522) | GI50 (PC-3) | GI50 (SF-295) | GI50 (SF-539) | GI50 (SK-MEL-28) | GI50 (SK-MEL-2) | GI50 (SK-MEL-5) | GI50 (SN12C) | GI50 (SR) | GI50 (SW-620) | GI50 (UACC-257)
CCOC(=O)c1cc([N+](=O)[O-])cc([N+](=O)[O-])c1Sc1[nH]cnc2ncnc1-2 | 14.3 µM (inactive) | 2.17 µM (inactive) | 2.12 µM (inactive) | 1.94 µM (inactive) | 3.54 µM (inactive) | 0.771 µM (active) | 1.6 µM (inactive) | 1.82 µM (inactive) | 24.1 µM (inactive) | 1.55 µM (inactive) | 3.73 µM (inactive) | 7.29 µM (inactive) | 2.92 µM (inactive) | 3.13 µM (inactive) | 2.93 µM (inactive) | 5.94 µM (inactive) | 2.21 µM (inactive) | 2.38 µM (inactive) | 2.42 µM (inactive) | 6.21 µM (inactive)
CCOP(=O)(COCCn1ncc(=O)[nH]c1=O)OCC | > 100 µM (inactive) | > 100 µM (inactive) | – | > 100 µM (inactive) | > 100 µM (inactive) | > 100 µM (inactive) | > 100 µM (inactive) | > 100 µM (inactive) | > 100 µM (inactive) | > 100 µM (inactive) | > 100 µM (inactive) | – | > 100 µM (inactive) | > 100 µM (inactive) | > 100 µM (inactive) | > 100 µM (inactive) | > 100 µM (inactive) | > 100 µM (inactive) | > 100 µM (inactive) | –
Cc1nc2c(ccc3[nH]c4ccccc4c32)s1 | 28.4 µM (inactive) | 20.5 µM (inactive) | 17.4 µM (inactive) | 0.111 µM (active) | 17.4 µM (inactive) | 16.3 µM (inactive) | 26.4 µM (inactive) | 31.1 µM (inactive) | 14.8 µM (inactive) | 15.9 µM (inactive) | 17.7 µM (inactive) | – | 26 µM (inactive) | 21.1 µM (inactive) | 19.9 µM (inactive) | 15.2 µM (inactive) | 24 µM (inactive) | 13.8 µM (inactive) | 19.7 µM (inactive) | 35.6 µM (inactive)
C=C(C)C1CC2(C)C(C)CC(OC(=O)/C(C)=C\C)CC2C(OC(=O)/C(C)=C\C)C1O (stereo unspecified) | 39.5 µM (inactive) | 22.1 µM (inactive) | 56.1 µM (inactive) | 21.4 µM (inactive) | – | 51.2 µM (inactive) | 55.3 µM (inactive) | 55.8 µM (inactive) | > 100 µM (inactive) | 32.7 µM (inactive) | 46.6 µM (inactive) | – | > 100 µM (inactive) | > 100 µM (inactive) | > 100 µM (inactive) | 15.6 µM (inactive) | 62.2 µM (inactive) | 19.8 µM (inactive) | 61 µM (inactive) | 89.1 µM (inactive)
Cc1cc(NS(=O)(=O)c2ccc(NC(=O)c3ccc4nc5ccccc5c(Nc5ccc(S(N)(=O)=O)cc5)c4c3)cc2)no1 | 24.6 µM (inactive) | 20.6 µM (inactive) | 24.8 µM (inactive) | 22.7 µM (inactive) | 33.6 µM (inactive) | 24.6 µM (inactive) | 21.4 µM (inactive) | 25.6 µM (inactive) | > 100 µM (inactive) | 17.8 µM (inactive) | 32.3 µM (inactive) | 26.6 µM (inactive) | 27.9 µM (inactive) | 21 µM (inactive) | 23.9 µM (inactive) | 25.1 µM (inactive) | 27.2 µM (inactive) | 25.1 µM (inactive) | 28.1 µM (inactive) | 22 µM (inactive)
CO[P@@]1(=O)O[C@@H](c2ccccc2)[C@H](O)[C@@]1(O)c1ccccc1 | > 100 µM (inactive) | > 100 µM (inactive) | > 100 µM (inactive) | > 100 µM (inactive) | – | > 100 µM (inactive) | > 100 µM (inactive) | > 100 µM (inactive) | > 100 µM (inactive) | > 100 µM (inactive) | > 100 µM (inactive) | > 100 µM (inactive) | > 100 µM (inactive) | > 100 µM (inactive) | > 100 µM (inactive) | > 100 µM (inactive) | > 100 µM (inactive) | 10.2 µM (inactive) | > 100 µM (inactive) | > 100 µM (inactive)
Nc1ncc2c(n1)-c1ccccc1OC2NC1CC1 (stereo unspecified) | > 100 µM (inactive) | > 100 µM (inactive) | > 100 µM (inactive) | > 100 µM (inactive) | – | > 100 µM (inactive) | > 100 µM (inactive) | > 100 µM (inactive) | > 100 µM (inactive) | > 100 µM (inactive) | > 100 µM (inactive) | > 100 µM (inactive) | > 100 µM (inactive) | – | > 100 µM (inactive) | > 100 µM (inactive) | > 100 µM (inactive) | > 100 µM (inactive) | > 100 µM (inactive) | > 100 µM (inactive)
